# According to PubChem BioAssay AID1745844 (Carcinogenic Potency Database (CPDB), 2022):
# Several values for one entry are separate records, joined by “and”; a condition that tells them apart may be missing. Equal values may be shown once. Activity calls are given as the source filed them. How the calls were made is not given here.
# Tested on: rodent lifetime carcinogenesis bioassay, tumor incidence TD50
# Test: carcinogenic potency in animals, long-term in vivo studies, CPDB compilation (AID 1745844)
smiles,measurement,setting,value
Nc1ccccc1N,TD50,"mouse, strain CD-1 HaM/ICR, females, in feed, site: any site (literature study), lesion: several types, types named in the paper, dosed 77 weeks, study length 90 weeks",676 mg/kg/day
same,TD50,"mouse, strain CD-1 HaM/ICR, females, in feed, site: liver, lesion: hepatoma, dosed 77 weeks, study length 90 weeks",611 mg/kg/day
same,TD50,"mouse, strain CD-1 HaM/ICR, females, in feed, site: liver, lesion: several types, types named in the paper, dosed 77 weeks, study length 90 weeks",507 mg/kg/day
same,TD50,"mouse, strain CD-1 HaM/ICR, females, in feed, site: lung, lesion: several types, types named in the paper, dosed 77 weeks, study length 90 weeks",2260 mg/kg/day (inactive)
same,TD50,"mouse, strain CD-1 HaM/ICR, males, in feed, site: any site (literature study), lesion: several types, types named in the paper, dosed 77 weeks, study length 86 weeks",1970 mg/kg/day
same,TD50,"mouse, strain CD-1 HaM/ICR, males, in feed, site: liver, lesion: hepatoma, dosed 77 weeks, study length 86 weeks",921 mg/kg/day and 1110 mg/kg/day
same,TD50,"mouse, strain CD-1 HaM/ICR, males, in feed, site: liver, lesion: several types, types named in the paper, dosed 77 weeks, study length 86 weeks",921 mg/kg/day
same,TD50,"mouse, strain CD-1 HaM/ICR, males, in feed, site: lung, lesion: several types, types named in the paper, dosed 77 weeks, study length 86 weeks",3210 mg/kg/day (inactive)
same,TD50,"rat, strain Charles River CD (Sprague-Dawley), males, in feed, site: liver, lesion: hepatoma, dosed 77 weeks, study length 107 weeks",248 mg/kg/day and 315 mg/kg/day
same,TD50,"rat, strain Charles River CD (Sprague-Dawley), males, in feed, site: liver, lesion: several types, types named in the paper, dosed 77 weeks, study length 107 weeks",248 mg/kg/day
CC1=C(/C=C/C(C)=C/C=C/C(C)=C/C=C/C=C(C)/C=C/C=C(C)/C=C/C2=C(C)CCCC2(C)C)C(C)(C)CCC1,TD50,"mouse, strain Charles River CD1, females, in feed, site: liver, lesion: hepatocellular adenoma, dosed 105 weeks, study length 105 weeks",15900 mg/kg/day (inactive)
same,carcinogen call,"mouse, strain Charles River CD1, females, in feed, site: liver, lesion: hepatocellular carcinoma, dosed 105 weeks, study length 105 weeks",negative (inactive)
same,carcinogen call,"mouse, strain Charles River CD1, females, in feed, site: lung, lesion: adenocarcinoma, dosed 105 weeks, study length 105 weeks",negative (inactive)
same,TD50,"mouse, strain Charles River CD1, females, in feed, site: lung, lesion: adenoma, dosed 105 weeks, study length 105 weeks",93600 mg/kg/day (inactive)
same,carcinogen call,"mouse, strain Charles River CD1, males, in feed, site: liver, lesion: hepatocellular adenoma, dosed 105 weeks, study length 105 weeks",negative (inactive)
same,TD50,"mouse, strain Charles River CD1, males, in feed, site: liver, lesion: hepatocellular carcinoma, dosed 105 weeks, study length 105 weeks",49700 mg/kg/day (inactive)
same,TD50,"mouse, strain Charles River CD1, males, in feed, site: lung, lesion: adenocarcinoma, dosed 105 weeks, study length 105 weeks",26400 mg/kg/day (inactive)
same,TD50,"mouse, strain Charles River CD1, males, in feed, site: lung, lesion: adenoma, dosed 105 weeks, study length 105 weeks",71400 mg/kg/day (inactive)
CCCCCCCCCCCCN=C(N)N,carcinogen call,"mouse, strain B6AKF1, females, oral dosing, site: any site (literature study), lesion: several types, types named in the paper, dosed 76 weeks, study length 76 weeks",negative (inactive)
same,carcinogen call,"mouse, strain B6AKF1, females, oral dosing, site: liver, lesion: hepatoma, dosed 76 weeks, study length 76 weeks",negative (inactive)
same,carcinogen call,"mouse, strain B6AKF1, females, oral dosing, site: lung, lesion: adenoma, dosed 76 weeks, study length 76 weeks",negative (inactive)
same,TD50,"mouse, strain B6AKF1, males, oral dosing, site: any site (literature study), lesion: several types, types named in the paper, dosed 76 weeks, study length 76 weeks",149 mg/kg/day (inactive)
same,carcinogen call,"mouse, strain B6AKF1, males, oral dosing, site: liver, lesion: hepatoma, dosed 76 weeks, study length 76 weeks",negative (inactive)
same,TD50,"mouse, strain B6AKF1, males, oral dosing, site: lung, lesion: several types, types named in the paper, dosed 76 weeks, study length 76 weeks",41.9 mg/kg/day (inactive)
same,TD50,"mouse, strain B6C3F1, females, oral dosing, site: any site (literature study), lesion: several types, types named in the paper, dosed 76 weeks, study length 76 weeks",54.7 mg/kg/day (inactive)
same,TD50,"mouse, strain B6C3F1, females, oral dosing, site: liver, lesion: hepatoma, dosed 76 weeks, study length 76 weeks",54.7 mg/kg/day (inactive)
same,carcinogen call,"mouse, strain B6C3F1, females, oral dosing, site: lung, lesion: several types, types named in the paper, dosed 76 weeks, study length 76 weeks",negative (inactive)
same,TD50,"mouse, strain B6C3F1, males, oral dosing, site: any site (literature study), lesion: several types, types named in the paper, dosed 76 weeks, study length 76 weeks",10.8 mg/kg/day (inactive)
same,TD50,"mouse, strain B6C3F1, males, oral dosing, site: liver, lesion: hepatoma, dosed 76 weeks, study length 76 weeks",19.4 mg/kg/day (inactive)
same,TD50,"mouse, strain B6C3F1, males, oral dosing, site: lung, lesion: adenoma, dosed 76 weeks, study length 76 weeks",30.1 mg/kg/day (inactive)
CCCCC(CC)COP(=O)(OCC(CC)CCCC)OCC(CC)CCCC (configuration not stated),TD50,"mouse, strain B6C3F1, females, by gavage, site: liver, lesion: hepatocellular adenoma + hepatocellular carcinoma + neoplastic nodule, dosed 103 weeks, study length 104 weeks",2220 mg/kg/day
same,TD50,"mouse, strain B6C3F1, females, by gavage, site: liver, lesion: hepatocellular adenoma + hepatocellular carcinoma, dosed 103 weeks, study length 104 weeks",2220 mg/kg/day
same,TD50,"mouse, strain B6C3F1, females, by gavage, site: liver, lesion: hepatocellular carcinoma, dosed 103 weeks, study length 104 weeks",2560 mg/kg/day
same,TD50,"mouse, strain B6C3F1, females, by gavage, site: lung, lesion: alveolar/bronchiolar adenoma + alveolar/bronchiolar carcinoma, dosed 103 weeks, study length 104 weeks",13700 mg/kg/day
same,carcinogen call,"mouse, strain B6C3F1, males, by gavage, site: any site (literature study), lesion: several types, types named in the paper, dosed 103 weeks, study length 104 weeks",negative (inactive)
same,TD50,"mouse, strain B6C3F1, males, by gavage, site: liver, lesion: hepatocellular adenoma + hepatocellular carcinoma + neoplastic nodule, dosed 103 weeks, study length 104 weeks",9000 mg/kg/day
same,TD50,"rat, strain Fischer 344, females, by gavage, site: any site (literature study), lesion: several types, types named in the paper, dosed 103 weeks, study length 104 weeks",230000 mg/kg/day (inactive)
same,TD50,"rat, strain Fischer 344, males, by gavage, site: adrenal gland, lesion: pheochromocytoma + pheochromocytoma, malignant, dosed 103 weeks, study length 104 weeks",5290 mg/kg/day
same,TD50,"rat, strain Fischer 344, males, by gavage, site: adrenal gland, lesion: pheochromocytoma, dosed 103 weeks, study length 104 weeks",5290 mg/kg/day
same,TD50,"rat, strain Fischer 344, males, by gavage, site: any site (literature study), lesion: several types, types named in the paper, dosed 103 weeks, study length 104 weeks",14200 mg/kg/day
same,TD50,"rat, strain Fischer 344, males, by gavage, site: thyroid gland + thyroid follicle, lesion: follicular-cell adenoma + cystadenoma, NOS, dosed 103 weeks, study length 104 weeks",28000 mg/kg/day
same,TD50,"rat, strain Fischer 344, males, by gavage, site: thyroid gland + thyroid follicle, lesion: follicular-cell adenoma + follicular-cell carcinoma + cystadenoma, NOS, dosed 103 weeks, study length 104 weeks",16700 mg/kg/day
